According to patent US8507559B2, “Cyclohexenyl modulators of chemokine receptor activity” (Bristol-Myers Squibb Company, priority 2008, dated 2013):

Molecular target: T1, CCR2 (Homo sapiens, UniProt P41597)
T1 construct: THP-1 human monocytic leukemic cell line, which expresses endogenous CCR2; endogenous in cells; host or cells: human peripheral blood mononuclear cells, human monocytes or THP-1 cells
T1 sequence (P41597 1-360 isoform P41597-2): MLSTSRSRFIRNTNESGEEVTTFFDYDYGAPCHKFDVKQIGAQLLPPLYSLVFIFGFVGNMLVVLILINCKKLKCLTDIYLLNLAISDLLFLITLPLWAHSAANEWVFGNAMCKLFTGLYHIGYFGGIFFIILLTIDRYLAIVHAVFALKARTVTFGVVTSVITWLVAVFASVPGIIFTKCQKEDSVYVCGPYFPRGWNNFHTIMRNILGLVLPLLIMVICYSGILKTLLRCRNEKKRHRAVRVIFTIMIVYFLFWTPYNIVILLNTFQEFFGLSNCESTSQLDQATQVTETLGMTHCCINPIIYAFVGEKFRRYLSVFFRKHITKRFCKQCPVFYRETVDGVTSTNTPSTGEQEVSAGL
Experiment: CCR2 binding: antagonism of 125I-MCP-1 binding (human PBMC / THP-1 whole cell)
Details: n = 1 unless otherwise noted
Description: Antagonism of MCP-1 Binding to Human PBMC
Millipore filter plates (#MABVN1250) are treated with 100 μl of binding buffer (0.5% bovine serum albumin, 20 mM HEPES buffer and 5 mM magnesium chloride in RPMI 1640 media) for thirty minutes at room temperature. To measure binding, 50 μl of binding buffer, with or without a known concentration compound, is combined with 50 μl of ^125-I labeled human MCP-1 (to give a final concentration of 150 pM radioligand) and 50 μl of binding buffer containing 5×10^5 cells. Cells used for such binding assays can include human peripheral blood mononuclear cells isolated by Ficoll-Hypaque gradient centrifugation, human monocytes (Weiner et al., J. Immunol. Methods. 1980, 36, 89), or the THP-1 cell line which expresses the endogenous receptor. The mixture of compound, cells and radioligand are incubated at room temperature for thirty minutes. Plates are placed onto a vacuum manifold, vacuum applied, and the plates washed three times with binding buffer containing 0.5M NaCl. The plastic skirt is removed from the plate, the plate allowed to air dry, the wells punched out and counted. The percent inhibition of binding is calculated using the total counts obtained in the absence of any competing compound and the background binding determined by addition of 100 nM MCP-1 in place of the test compound.
THP-1 Monocytic Cell Binding: Whole Cell-based Assay
The human CCR2 binding assay was also established with the THP-1 human monocytic leukemic cell line, which expresses endogenous CCR2, using ^125I-human MCP-1 as the tracer ligand. Radioligand competition binding assays were used for assessment of binding affinity of test compounds to the CCR2 receptor. For radioligand competition studies, 100 μl containing 2.5×10^5 THP-1 cells/well (in assay buffer containing 50 mM HEPES, pH7.4, 5 mM MgCl2, 1 mM CaCl2 and 0.5% BSA) were added to 96-well assay plates containing the test compounds in 3-fold serial dilution, with final concentrations ranging from 5 μM to 100 pM. Subsequently, 50 μl ^125I-MCP-1 radioligand at a final concentration of 0.2 nM in assay buffer were added to the reaction. After a 90 minute incubation period at room temperature, the binding reaction was terminated by harvesting on GF/B filter plates (PerkinElmer Cat. No. 6005177) followed by washing with ice-cold wash buffer (50 mM HEPES, pH 7.4, 0.1% BSA, 0.5 M NaCl) to remove unbound ligand. After washing, the plate was dried for 45 minutes at 60° C. followed by addition of 40 μl MicroScint 20 scintillation fluid, sealed and analyzed by the Packard TopCount reader. Non-specific binding was determined in the presence of 10 μM (a molar excess of 5000 fold) of an in-house CCR2 small molecule antagonist (CCR2 IC50=2 nM). Specific binding of ^125I-MCP-1 was calculated as the difference between total and non-specific binding. The competition data was plotted as a percentage inhibition of radioligand specific bound in the absence of test compound (percent of total signal). After correcting for non-specific binding, IC50 values were determined. The IC50 is defined as the concentration of test compound required to reduce ^125I-MCP-1 specific binding by 50% and was calculated using the four parameter logistic equation to fit the normalized data.

Compound	Ki
Cc1cc([C@@]2(C)C[C@H](C)CC=C2C(=O)O)ccc1F (racemic) [Example 1-25, (4RS,6RS)-6-(4-fluoro-3-methylphenyl)-4,6-dimethylcyclohex-1-enecarboxylic acid]	1100 nM
(4RS,6RS)-6-(4-chloro-3-(trifluoromethyl)-phenyl)-4-(hydroxymethyl)-6-methylcyclohex-1-enecarboxylic acid [Example 9]	310 nM
CC(=O)NC[C@@H]1CC=C(C(=O)O)[C@@](C)(c2ccc(Cl)c(C(F)(F)F)c2)C1 (racemic) [Example 11, (4RS,6RS)-4-(acetamidomethyl)-6-(4-chloro-3-(trifluoromethyl)phenyl)-6-methylcyclohex-1-enecarboxylic acid]	5500 nM
C[C@@H]1CC=C(C(=O)O)[C@@](C)(c2ccc3ccccc3c2)C1 (racemic) [Example 1-20, (4RS,6RS)-4,6-dimethyl-6-(naphthalen-2-yl)cyclohex-1-enecarboxylic acid]	320 nM
CC1(c2cccc(C(F)(F)F)c2)CCCC=C1C(=O)O (racemic) [Example 1-10, 6-methyl-6-(3-(trifluoromethyl)-phenyl)cyclohex-1-enecarboxylic acid]	1600 nM
C[C@@H]1CC=C(C(=O)O)[C@@](C)(c2ccc(F)c(F)c2)C1 (racemic) [Example 1-05, (4RS,6RS)-6-(3,4-difluorophenyl)-4,6-dimethylcyclohex-1-enecarboxylic acid]	3500 nM
C[C@@H]1CC=C(C(=O)O)[C@@](C)(c2cc(C(F)(F)F)cc(C(F)(F)F)c2)C1 (racemic) [Example 1-14, (4RS,6RS)-6-(3,5-bis(trifluoromethyl)-phenyl)-4,6-dimethylcyclohex-1-enecarboxylic acid]	740 nM
C[C@H]1CC=C(C(=O)O)[C@](C)(c2ccc(Cl)c(Cl)c2)C1 [Example 4-02a, (45,65)-6-(3,4-dichlorophenyl)-4,6-dimethylcyclohex-1-enecarboxylic acid]	36 nM
C[C@@H]1CC=C(C(=O)O)[C@@](C)(c2cccc(C(F)(F)F)c2)C1 (racemic) [Example 1-12, (4RS,6RS)-4,6-dimethyl-6-(3-(trifluoromethyl)phenyl)cyclohex-1-enecarboxylic acid]	280 nM
C[C@@H]1CC=C(C(=O)O)[C@@](C)(c2ccc(Cl)c(Cl)c2)C1 [Example 4-02b, (4R,6R)-6-(3,4-dichlorophenyl)-4,6-dimethylcyclohex-1-enecarboxylic acid]	5800 nM
C[C@@H]1CC=C(C(=O)O)[C@@](C)(c2ccc(Cl)c(Cl)c2)C1 (racemic) [Example 1-11, (4RS,6RS)-6-(3,4-dichlorophenyl)-4,6-dimethylcyclohex-1-enecarboxylic acid]	80 nM
C[C@@H]1CC=C(C(=O)O)[C@@](C)(c2cccc(F)c2)C1 (racemic) [Example 1-23, (4RS,6RS)-6-(3-fluorophenyl)-4,6-dimethylcyclohex-1-enecarboxylic acid]	3700 nM
Cc1ccc([C@@]2(C)C[C@H](C)CC=C2C(=O)O)c2ccccc12 (racemic) [Example 1-28, (4RS,6RS)-4,6-dimethyl-6-(4-methyl-naphthalen-1-yl)cyclohex-1-enecarboxylic acid]	250 nM
